Data published in patent publication US7598072B2 (priority 2003, dated 2009).
Read-outs that look alike come from different tables or passages of the source.

Legend:
ASLV [1] = type: cell-based, avian sarcoma and leukosis virus; settings: 3 mM NH4Cl, data not shown
ASLV [2] = settings: 30 mM or higher concentrations of NH4Cl; cited from earlier work
[3] = tested on: HIV [EnvA] pseudotyped virus; assay: HIV [EnvA] cell-free fusion/uncoating reaction, HIV-1 early DNA by real-time PCR; type: biochemical; settings: 4.5 mM, 200 μg 293 S10 fraction, 6 hour incubation
[4] = tested on: ASLV-A vector RCASBP(A)-EGFP; type: biochemical, avian sarcoma and leukosis virus

Molecule: Cl.N [NH4Cl, ammonium chloride]
- ASLV fusion and entry into cells (ASLV [1]): unaffected
- ASLV fusion and entry into cells (ASLV [2]): effectively blocked

Molecule: Nc1ncnc2c1ncn2[C@@H]1O[C@H](CO[P@](=O)(O)O[P@](=O)(O)O[P@@](=O)(O)S)[C@@H](O)[C@H]1O [adenosine 5′-[γ-thio]triphosphate]
- effect on stimulation of HIV-1 early DNA synthesis in the cell-free system [3]: markedly reduced
- effect on stimulation of ASLV early DNA synthesis in the cell-free system ([4]; 2.5 mM, 150 μg 293 S10 fraction, 6 hour incubation): markedly reduced

Molecule: apyrase
- effect on amount of ASLV early DNA products ([4]; 10 units/ml apyrase added 30 minutes or later after initiating the cell-free reaction): little or no effect
- effect on amount of ASLV early DNA products ([4]; 10 units/ml apyrase, 150 μg 293 S10 fraction): reduced
